Our source for the IC50 values is patent publication US10023543B2 (CELGENE QUANTICEL RESEARCH, INC., priority 2014, dated 2018).

Where two headings read alike, the source gives them in different places.

For this experiment, the system named is THP-1 (AML) cells. The experiment in a line: LSD1 CD11b cellular assay (flow cytometry). The class given is cell-based. The conditions noted are these: Homo sapiens, THP-1, 96 h.
Setting [1] is: CD11b expressing cells, 4 days, read-out: THP-1 IC50.

Usually IC50 stands for the concentration that inhibits the measured activity by half.

As to `Cn1c(N2CCC(N)CC2)nc(-c2ccc(C#N)c(F)c2)c(-c2cc(F)cc(F)c2)c1=O` [Example 103, 4-[2-(4-aminopiperidin-1-yl)-5-(3,5-difluorophenyl)-1-methyl-6-oxopyrimidin-4-yl]-2-fluorobenzonitrile], the IC50 under setting [1] is below 0.1 µM.
With `Cn1c(N2CCC(N)CC2)nc(-c2ccc(C#N)c(F)c2)c(-c2ccc3cn[nH]c3c2)c1=O` [Example 77, 4-[2-(4-amino-piperidin-1-yl)-5-(1H-indazol-6-yl)-1-methyl-6-oxo-1,6-dihydro-pyrimidin-4-yl]-2-fluoro-benzonitrile], the IC50 under setting [1] was below 0.1 µM.
For the molecule `CCOc1ncc(-c2c(-c3ccc(C#N)c(F)c3)nc(N3CCC(N)CC3)n(C)c2=O)cc1F` [Example 93, 4-[2-(4-aminopiperidin-1-yl)-5-(6-ethoxy-5-fluoropyridin-3-yl)-1-methyl-6-oxopyrimidin-4-yl]-2-fluorobenzonitrile], under setting [1], the IC50 was below 0.1 µM.
Same read-out and setting: with `C#Cc1c(-c2ccc(C#N)c(F)c2)nc(N2CCC(N)CC2)n(C)c1=O` [Example 110] the figure was 0.1 to 1 µM; with `Cn1c(N2CCC(N)CC2)nc(-c2ccc(C#N)c(F)c2)c(-c2ccc3[nH]ccc3c2)c1=O` [Example 73, 4-[2-(4-amino-piperidin-1-yl)-5-(1H-indol-5-yl)-1-methyl-6-oxo-1,6-dihydro-pyrimidin-4-yl]-2-fluoro-benzonitrile], below 0.1 µM.
The same measure, in the same setting: with `COc1ccc(-c2c(-c3ccc(C#N)c(F)c3)nc(N(C)C[C@H]3CCNC3)n(C)c2=O)cc1` [Example 54, 2-fluoro-4-[5-(4-methoxy-phenyl)-1-methyl-2-(methyl-(3S)-pyrrolidin-3-ylmethyl-amino)-6-oxo-1,6-dihydro-pyrimidin-4-yl]-benzonitrile] the figure was below 0.1 µM; with `Cn1c(N2CCC(N)CC2)nc(-c2ccc(C#N)cc2)c(-c2ccc3c(cnn3C)c2)c1=O` [Example 33, 4-[2-(4-aminopiperidyl)-1-methyl-5-(1-methyl(1H-indazol-5-yl))-6-oxohydropyrimidin-4-yl]benzenecarbonitrile], below 0.1 µM.
For `COc1ccc(-c2c(-c3ccc(C#N)cc3)nc(N3CCC(N)CC3)n(C)c2=O)cc1` [Example 2, 4-[2-(4-amino-piperidin-1-yl)-5-(4-methoxy-phenyl)-1-methyl-6-oxo-1,6-dihydro-pyrimidin-4-yl]-benzonitrile], the IC50 (read-out: THP-1 IC50 (μM)) is below 0.1 µM.
In the case of `CN(C)C1CCN(c2nc(-c3ccc(C#N)c(F)c3)c(-c3ccc4cn[nH]c4c3)c(=O)n2C)CC1` [Example 84, 4-[2-(4-dimethylamino-piperidin-1-yl)-5-(2H-indazol-6-yl)-1-methyl-6-oxo-1,6-dihydro-pyrimidin-4-yl]-2-fluoro-benzonitrile], the IC50 under setting [1] was below 0.1 µM.
On the same count and under the same terms, with `COc1ccc(-c2c(-c3ccc(C#N)c(F)c3)nc(N3CCC4(CCNC4)CC3)n(C)c2=O)cc1F` [Example 22, 4-[2-(2,8-diaza-spiro[4.5]dec-8-yl)-5-(3-fluoro-4-methoxy-phenyl)-1-methyl-6-oxo-1,6-dihydro-pyrimidin-4-yl]-2-fluoro-benzonitrile] the figure was below 0.1 µM; with `COCc1ccc(-c2c(-c3ccc(C#N)c(F)c3)nc(N3CCC(N)CC3)n(C)c2=O)cc1` [Example 107, 4-[2-(4-aminopiperidin-1-yl)-5-[4-(methoxymethyl)phenyl]-1-methyl-6-oxopyrimidin-4-yl]-2-fluorobenzonitrile], below 0.1 µM.
Same read-out and setting: with `Cn1c(N2CCC(N)CC2)nc(-c2ccc(C#N)c(F)c2)c(-c2ccc(CO)cc2)c1=O` [Example 100, 4-[2-(4-aminopiperidin-1-yl)-5-[4-(hydroxymethyl)phenyl]-1-methyl-6-oxopyrimidin-4-yl]-2-fluorobenzonitrile] the figure was below 0.1 µM.
Regarding `Cn1c(N2CCC(N)CC2)nc(-c2ccc(C#N)c(F)c2)c(-c2ccc(S(C)(=O)=O)cc2)c1=O` [Example 105, 4-[2-(4-aminopiperidin-1-yl)-1-methyl-5-(4-methylsulfonylphenyl)-6-oxopyrimidin-4-yl]-2-fluorobenzonitrile], the IC50 under setting [1] was below 0.1 µM.
The same measure, in the same setting: with `COc1ccc(-c2c(-c3ccc(C#N)c(F)c3)nc(N3CCC(N)CC3)n(CC(N)=O)c2=O)cc1` [Example 16, 2-[2-(4-amino-piperidin-1-yl)-4-(4-cyano-3-fluoro-phenyl)-5-(4-methoxy-phenyl)-6-oxo-6H-pyrimidin-1-yl]-acetamide] the figure was below 0.1 µM.
On the same count and under the same terms, with `Cn1c(N2CCC(N)CC2)nc(-c2ccc(C#N)c(F)c2)c(-c2ccc3c(ccn3C)c2)c1=O` [Example 74, 4-[2-(4-amino-piperidin-1-yl)-1-methyl-5-(1-methyl-1H-indol-5-yl)-6-oxo-1,6-dihydro-pyrimidin-4-yl]-2-fluoro-benzonitrile] the figure was below 0.1 µM.
On the same count and under the same terms, with `Cn1c(N2CCC(N)CC2)nc(-c2ccc(C#N)c(F)c2)c(-c2ccc3occc3c2)c1=O` [Example 18, 4-[2-(4-amino-piperidin-1-yl)-5-benzofuran-5-yl-1-methyl-6-oxo-1,6-dihydro-pyrimidin-4-yl]-2-fluoro-benzonitrile] the figure was below 0.1 µM; with `COc1ccc(-c2c(-c3ccc(C#N)c(F)c3)nc(N3CC(CN)C3)n(C)c2=O)cc1` [Example 69, 4-[2-(3-aminomethyl-azetidin-1-yl)-5-(4-methoxy-phenyl)-1-methyl-6-oxo-1,6-dihydro-pyrimidin-4-yl]-2-fluoro-benzonitrile], 0.1 to 1 µM.
`Cn1c(N2CCC(N)CC2)nc(-c2ccc(C#N)c(F)c2)c(-c2cccc(F)c2)c1=O` [Example 102, 4-[2-(4-aminopiperidin-1-yl)-5-(3-fluorophenyl)-1-methyl-6-oxopyrimidin-4-yl]-2-fluorobenzonitrile]: the IC50 under setting [1] is below 0.1 µM.
Same read-out and setting: as for `COc1ccc(-c2c(-c3ccc(C#N)c(F)c3)nc(N3CCCNCC3)n(C)c2=O)cc1F` [Example 46, 4-[2-[1,4]diazepan-1-yl-5-(3-fluoro-4-methoxy-phenyl)-1-methyl-6-oxo-1,6-dihydro-pyrimidin-4-yl]-2-fluoro-benzonitrile], the figure is below 0.1 µM; as for `CCc1ccc(-c2c(-c3ccc(C#N)cc3)nc(N3CCC(N)CC3)n(C)c2=O)cn1` [Example 10, 4-[2-(4-amino-piperidin-1-yl)-5-(6-ethyl-pyridin-3-yl)-1-methyl-6-oxo-1,6-dihydro-pyrimidin-4-yl]-benzonitrile], 0.1 to 1 µM.
On the same count and under the same terms, with `CN(C)c1ccc(-c2c(-c3ccc(C#N)c(F)c3)nc(N3CCC(N)CC3)n(C)c2=O)cc1` [Example 59, 4-[2-(4-amino-piperidin-1-yl)-5-(4-dimethylamino-phenyl)-1-methyl-6-oxo-1,6-dihydro-pyrimidin-4-yl]-2-fluoro-benzonitrile] the figure was below 0.1 µM.
Same read-out and setting: as for `CN(C)C1CCN(c2nc(-c3ccc(C#N)c(F)c3)c(-c3ccc4c(cnn4C)c3)c(=O)n2C)CC1` [Example 72, 4-[2-(4-dimethylamino-piperidin-1-yl)-1-methyl-5-(1-methyl-1H-indazol-5-yl)-6-oxo-1,6-dihydro-pyrimidin-4-yl]-2-fluoro-benzonitrile], the figure is below 0.1 µM.
For `CN(C)c1ccc(-c2c(-c3ccc(C#N)c(F)c3)nc(N3CCCNCC3)n(C)c2=O)cn1` [Example 63, 4-[2-[1,4]diazepan-1-yl-5-(6-dimethylamino-pyridin-3-yl)-1-methyl-6-oxo-1,6-dihydro-pyrimidin-4-yl]-2-fluoro-benzonitrile], under setting [1], the IC50 was below 0.1 µM.
Same read-out and setting: as for `COc1ccc(-c2c(-c3ccc(C#N)c(F)c3)nc(N(C)C[C@@H]3CCNC3)n(C)c2=O)cc1` (stereo in doubt) [Example 56, 2-fluoro-4-[5-(4-methoxy-phenyl)-1-methyl-2-(methyl-pyrrolidin-3-ylmethyl-amino)-6-oxo-1,6-dihydro-pyrimidin-4-yl]-benzonitrile], the figure is below 0.1 µM; as for `COc1ccc(-c2c(-c3ccc(C#N)c(F)c3)nc(N3CC[C@H](N)[C@H](F)C3)n(C)c2=O)cc1` [Example 79, 4-[2-((4S,3R)-4-amino-3-fluoro-piperidin-1-yl)-5-(4-methoxy-phenyl)-1-methyl-6-oxo-1,6-dihydro-pyrimidin-4-yl]-2-fluoro-benzonitrile], below 0.1 µM; as for `CNC1CCN(c2nc(-c3ccc(C#N)c(F)c3)c(-c3ccc(OC)cc3)c(=O)n2C)CC1` [Example 11, 2-fluoro-4-[5-(4-methoxy-phenyl)-1-methyl-2-(4-methylamino-piperidin-1-yl)-6-oxo-1,6-dihydro-pyrimidin-4-yl]-benzonitrile], below 0.1 µM.
As to `Cn1c(N2CCC(N)CC2)nc(-c2ccc(C#N)c(F)c2)c(Cl)c1=O` [Example 20, 4-[2-(4-aminopiperidin-1-yl)-5-chloro-1-methyl-6-oxopyrimidin-4-yl]-2-fluorobenzonitrile], the IC50 under setting [1] is 0.1 to 1 µM.
On the same count and under the same terms, as for `Cn1c(N2CCC(N)CC2)nc(-c2ccc(C#N)cc2)c(-c2ccc(C(N)=O)c(F)c2)c1=O` [Example 41, 4-[2-(4-aminopiperidyl)-6-(4-cyanophenyl)-3-methyl-4-oxo(3-hydropyrimidin-5-yl)]-2-fluorobenzamide], the figure is 0.1 to 1 µM; as for `COc1ccc(-c2c(-c3ccc(C#N)c(F)c3)nc(N3CC[C@@H](N)C3)n(C)c2=O)cc1F` [Example 27, 4-[2-((3R)-3-aminopyrrolidinyl)-5-(3-fluoro-4-methoxyphenyl)-1-methyl-6-oxohydropyrimidin-4-yl]-2-fluorobenzenecarbonitrile], below 0.1 µM.
Same read-out and setting: as for `COc1ccc(-c2c(-c3ccc(C#N)cc3)nc(NC[C@H]3CCNC3)n(C)c2=O)cc1F` [Example 44, 4-{5-(3-fluoro-4-methoxy-phenyl)-1-methyl-6-oxo-2-[(3S)-(pyrrolidin-3-ylmethyl)-amino]-1,6-dihydro-pyrimidin-4-yl}-benzonitrile], the figure is 0.1 to 1 µM; as for `COc1ccc(-c2c(-c3ccc(C#N)c(F)c3)nc(N3CC[C@@H](N)[C@@H](F)C3)n(C)c2=O)cc1` [Example 78, 4-[2-((4R,3S)-4-amino-3-fluoro-piperidin-1-yl)-5-(4-methoxy-phenyl)-1-methyl-6-oxo-1,6-dihydro-pyrimidin-4-yl]-2-fluoro-benzonitrile], below 0.1 µM.
